Reference: US20240317721A1, “PYRAZOLYL DERIVATIVES AS INHIBITORS OF THE KRAS MUTANT PROTEIN” (NOVARTIS AG, priority 2021, published 2024)

Biological target: KRasG12C mutant (Homo sapiens (Human), UniProt P01116, G12C)
Experiment: covalent competition assay
Format: binding
Details: comparison of the two atropisomers; a(R) vs a(S) configuration

| Compound | relative activity of the atropisomers of a pair in the covalent competition assay |
| --- | --- |
| C=CC(=O)N1CC2(CC(n3nc(N4CCN(C(C)=O)C[C@]4(C)CC)c(-c4c(Cl)c(C)cc5[nH]ncc45)c3C)C2)C1 (single isomer, unassigned) [Example 121a] | less active atropisomer |
| C=CC(=O)N1CC2(CC(n3nc(N4CCN(C(C)=O)C[C@]4(C)CC)c(-c4c(Cl)c(C)cc5[nH]ncc45)c3C)C2)C1 (single isomer, unassigned) [Example 121b] | most active atropisomer |

Biological target: KRasG12C (M1-K169, biotinylated on the N-terminus) (Homo sapiens (Human), UniProt P01116, G12C)
Experiment: Covalent competition assay: scintillation proximity assay (SPA) quantifying covalent modification of KRASG12C
Format: binding
Details: competition with radiolabeled covalent probe (Compound B/Compound A), 2 hours incubation, 10 nM KRasG12C
Procedure, shortened: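 Scintillation proximity readout after streptavidin bead capture (30 min) of biotinylated KRasG12C(M1-K169):GDP, 10 nM final, which was covalently labelled over 2 h by 25 nM radio-probe plus 475 nM cold probe unless blocked by compound.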

| Compound | IC50 |
| --- | --- |
| C=CC(=O)N1CC2(CC(n3nc(N4CCN(C(C)=O)C[C@]4(C)CC)c(-c4c(Cl)c(C)cc5[nH]ncc45)c3C)C2)C1 (single isomer, unassigned) [Example 121a] | > 5 µM |
| C=CC(=O)N1CC2(CC(n3nc(N4CCN(C(C)=O)C[C@]4(C)CC)c(-c4c(Cl)c(C)cc5[nH]ncc45)c3C)C2)C1 (single isomer, unassigned) [Example 121b] | 0.008 µM |
| C=CC(=O)N1CC2(CC(n3nc(N4CCC(N5C6CCC5COC6)CC4(C)C)c(-c4c(Cl)c(C)cc5[nH]ncc45)c3C)C2)C1 [Example 75a, 1-(6-(3-(4-((1R,5S)-3-oxa-8-azabicyclo[3.2.1]octan-8-yl)-2,2-dimethylpiperidin-1-yl)-4-(5-chloro-6-methyl-1H-indazol-4-yl)-5-methyl-1H-pyrazol-1-yl)-2-azaspiro[3.3]heptan-2-yl)prop-2-en-1-one] | > 5 µM |
| C=CC(=O)N1CC2(CC(n3nc(N4CCN(C(C)=O)CC4(C)C)c(-c4cc(O)cc5ccccc45)c3C)C2)C1 [Example 77, 1-(6-(3-(4-acetyl-2,2-dimethylpiperazin-1-yl)-4-(3-hydroxynaphthalen-1-yl)-5-methyl-1H-pyrazol-1-yl)-2-azaspiro[3.3]heptan-2-yl)prop-2-en-1-one] | 1.2 µM |
| C=CC(=O)N1CC2(CC(n3nc(N4CCC(C(=O)N(C)C)CC4(C)C)c(-c4c(Cl)c(C)cc5[nH]ncc45)c3C)C2)C1 (stereo not drawn) [Example 98a, 1-(1-(2-acryloyl-2-azaspiro[3.3]heptan-6-yl)-4-(5-chloro-6-methyl-1H-indazol-4-yl)-5-methyl-1H-pyrazol-3-yl)-N,N,2,2-tetramethylpiperidine-4-carboxamide] | > 5 µM |
| C=CC(=O)N1CC2(CC(n3nc(N4CCC(C(=O)N(C)C)CC4(C)C)c(-c4c(Cl)c(C)cc5[nH]ncc45)c3C)C2)C1 (stereo not drawn) [Example 99b, 1-(1-(2-acryloyl-2-azaspiro[3.3]heptan-6-yl)-4-(5-chloro-6-methyl-1H-indazol-4-yl)-5-methyl-1H-pyrazol-3-yl)-N,N,2,2-tetramethylpiperidine-4-carboxamide] | > 5 µM |
| C=CC(=O)N1CC2(CC(n3nc(N4CCN(C[C@@H]5COCCO5)C[C@]4(C)CC)c(-c4c(O)cccc4Cl)c3C)C2)C1 [Example 111, 1-(6-(3-((S)-4-(((R)-1,4-dioxan-2-yl)methyl)-2-ethyl-2-methylpiperazin-1-yl)-4-(2-chloro-6-hydroxyphenyl)-5-methyl-1H-pyrazol-1-yl)-2-azaspiro[3.3]heptan-2-yl)prop-2-en-1-one] | 1.7 µM |
| C=CC(=O)N1CC2(CC(n3nc(N4CCN(C5COC5)C5COCC54)c(-c4c(Cl)c(C)cc5[nH]ncc45)c3C)C2)C1 (stereo not drawn) [Example 136b, 1-(6-(4-(5-chloro-6-methyl-1H-indazol-4-yl)-5-methyl-3-((4aS*,7aS*)-4-(oxetan-3-yl)hexahydrofuro[3,4-b]pyrazin-1(2H)-yl)-1H-pyrazol-1-yl)-2-azaspiro[3.3]heptan-2-yl)prop-2-en-1-one] | > 5 µM |
| C=CC(=O)N1CC2(CC(n3nc(N4CCN(C5COC5)C5COCC54)c(-c4c(Cl)c(C)cc5[nH]ncc45)c3C)C2)C1 (stereo not drawn) [Example 137a, 1-(6-(4-(5-chloro-6-methyl-1H-indazol-4-yl)-5-methyl-3-((4aS*,7aS*)-4-(oxetan-3-yl)hexahydrofuro[3,4-b]pyrazin-1(2H)-yl)-1H-pyrazol-1-yl)-2-azaspiro[3.3]heptan-2-yl)prop-2-en-1-one] | > 5 µM |
| Cc1cc2[nH]ncc2c(-c2c(N3CCN(C4COC4)CC34CCC4)nn(C3CC4(C3)CN(C(=O)[C@@H]3CO3)C4)c2C)c1Cl [Example 139, (S)-(6-(4-(5-chloro-6-methyl-1H-indazol-4-yl)-5-methyl-3-(8-(oxetan-3-yl)-5,8-diazaspiro[3.5]nonan-5-yl)-1H-pyrazol-1-yl)-2-azaspiro[3.3]heptan-2-yl)(oxiran-2-yl)methanone] | 0.45 µM |
| C=CC(=O)N1CC2(CC(n3nc(N4CCN(C5COC5)CC45CCOC5)c(-c4c(Cl)c(C)cc5[nH]ncc45)c3C)C2)C1 (stereo not drawn) [Example 141a, 1-(6-(4-(5-chloro-6-methyl-1H-indazol-4-yl)-5-methyl-3-(9-(oxetan-3-yl)-2-oxa-6,9-diazaspiro[4.5]decan-6-yl)-1H-pyrazol-1-yl)-2-azaspiro[3.3]heptan-2-yl)prop-2-en-1-one] | > 5 µM |
| C=CC(=O)N1CC2(CC(n3nc(N4CCN(C5COC5)CC45CCOC5)c(-c4c(Cl)c(C)cc5[nH]ncc45)c3C)C2)C1 (stereo not drawn) [Example 142b, 1-(6-(4-(5-chloro-6-methyl-1H-indazol-4-yl)-5-methyl-3-(9-(oxetan-3-yl)-2-oxa-6,9-diazaspiro[4.5]decan-6-yl)-1H-pyrazol-1-yl)-2-azaspiro[3.3]heptan-2-yl)prop-2-en-1-one] | > 5 µM |
| C=CC(=O)N1CC2(CC(n3nc(N4CCN(CC(C)(C)O)CC45CCC5)c(-c4c(OC)c(Cl)cc5[nH]ncc45)c3C)C2)C1 [Example 168, 1-(6-(4-(6-chloro-5-methoxy-1H-indazol-4-yl)-3-(8-(2-hydroxy-2-methylpropyl)-5,8-diazaspiro[3.5]nonan-5-yl)-5-methyl-1H-pyrazol-1-yl)-2-azaspiro[3.3]heptan-2-yl)prop-2-en-1-one] | 0.302 µM |
| C=CC(=O)N1CC2(CC(n3nc(N4CCN(C[C@@H]5COCCO5)C[C@]4(C)CC)c(-c4c(Cl)c(C)cc5[nH]ncc45)c3C#N)C2)C1 [Example 176, 3-((S)-4-(((R)-1,4-dioxan-2-yl)methyl)-2-ethyl-2-methylpiperazin-1-yl)-1-(2-acryloyl-2-azaspiro[3.3]heptan-6-yl)-4-(5-chloro-6-methyl-1H-indazol-4-yl)-1H-pyrazole-5-carbonitrile] | < 0.005 µM |
| C=CC(=O)N1CC2(CC(n3cc(-c4c(Cl)c(C)cc5[nH]ncc45)c(N4CC[C@@H](CN5CCOCC5)CC4(C)C)n3)C2)C1 [Example 223, (R)-1-(6-(4-(5-chloro-6-methyl-1H-indazol-4-yl)-3-(2,2-dimethyl-4-(morpholinomethyl)piperidin-1-yl)-1H-pyrazol-1-yl)-2-azaspiro[3.3]heptan-2-yl)prop-2-en-1-one] | 0.6 µM |

Biological target: KRasG12C (Homo sapiens (Human), UniProt P01116, G12C)
Experiment: MS-based assay assessing % modification of KRasG12C over compound concentrations and time points
Format: biochemical
Details: non-labeled ligand, internally determined, read-out: (kinact/KI)probe, second order rate constant for modification of KRasG12C

| Compound | kinact/KI |
| --- | --- |
| C=CC(=O)Nc1ccc(-n2c(C)c(-c3c(C)ccc4[nH]ncc34)c3cccnc32)c(F)c1 [Compound A, N-(3-fluoro-4-(2-methyl-3-(5-methyl-1H-indazol-4-yl)-1H-pyrrolo[2,3-b]pyridin-1-yl)phenyl)acrylamide] | ~5000 M⁻¹ s⁻¹ |
